In brackets after ≈: the same amount, converted by molar mass.
Experiments:
[1] = test system: Radical scavenging activity; test: Antioxidant activity assessed as as DPPH radical scavenging activity after 30 min by spectrophotometry; format: functional
[2] = Antioxidant activity assessed as ABTS radical scavenging activity after 10 min by spectrophotometry; format: functional
[3] = Antioxidant activity assessed as trolox equivalents of ferric reducing activity after 30 min by spectrophotometry; format: functional
[4] = biological target: Lysosomal alpha-glucosidase (Homo sapiens) (UniProt P10253); test: Inhibition of alpha-glucosidase (unknown origin) using para-nitrophenyl-alpha-D-glucopyranoside as substrate incubated at 50 to 300 ug/ml for 15 min prior to substrate addition measured after 15 min by spectrophotometric analysis

Row | SMILES | IC50 [1] | IC50 [2] | Activity [3] | inhibition [4]
1 | Cc1cc(C(C)(C)C)c(O)c(C(C)(C)C)c1 [BUTYLATED HYDROXYTOLUENE] | 18.71 µg/mL (≈ 84.9 µM) | 6.64 µg/mL (≈ 30.1 µM) | 1580 µmol/g | –
2 | O=c1cc(-c2ccc(O)c(O)c2)oc2cc(O)cc(O)c12 [LUTEOLIN] | 0.99 µg/mL (≈ 3.46 µM) | – | – | 99.9%
3 | C[C@H]1O[C@H](O[C@H]2[C@H](O)[C@@H](O)[C@@H](O[C@H]3[C@H](O)[C@@H](O)C(O)O[C@@H]3CO)O[C@@H]2CO)[C@H](O)[C@@H](O)[C@@H]1N[C@H]1C=C(CO)[C@@H](O)[C@H](O)[C@H]1O (stereo not given in full) | – | – | – | 55.6%
4 | C[C@H]1[C@H](C)CC[C@]2(C(=O)O)CC[C@]3(C)C(=CC[C@@H]4[C@@]5(C)CC[C@H](O)C(C)(C)[C@@H]5CC[C@]43C)[C@H]12 | – | – | – | 97.6%
5 | O=c1cc(-c2ccc(O)cc2)oc2cc(O)c([C@@H]3O[C@H](CO)[C@@H](O)[C@H](O)[C@H]3O)c(O)c12 | – | – | – | 76.8%
6 | CC[C@H](/C=C/[C@@H](C)[C@H]1CC[C@H]2[C@@H]3CC=C4CC(OC(C)=O)CC[C@]4(C)[C@H]3CC[C@]12C)C(C)C (stereo not given in full) | – | – | – | 99.1%
7 | CCCOC(=O)c1cc(O)c(O)c(O)c1 [PROPYL GALLATE] | 3.96 µg/mL (≈ 18.7 µM) | – | – | –

Source: ChEMBL document CHEMBL3045842, “Antioxidant and -glucosidase inhibitory compounds from Pimpinella candolleana Wight et Arn” (Med Chem Res, 2012)
